In one experiment the target is K-Ras G12V (Homo sapiens, UniProt P01116, G12V). In words: SOS1 catalyzed nucleotide exchange assay (GDP form K-Ras), K-Ras G12V. The note with it: read-out: K-Ras G12V GDP Biochemical Activity (IC50).
A further experiment has as its target K-Ras WT (Homo sapiens, UniProt P01116). In words: SOS1 catalyzed nucleotide exchange assay (GDP form K-Ras), K-Ras WT. The note with it: read-out: K-Ras WT GDP Biochemical Activity (IC50).
In a further experiment the target is K-Ras G12D (Homo sapiens, UniProt P01116, G12D). In words: biochemical.
Sequence of K-Ras G12D (P01116 1-169 isoform P01116-2 G12D): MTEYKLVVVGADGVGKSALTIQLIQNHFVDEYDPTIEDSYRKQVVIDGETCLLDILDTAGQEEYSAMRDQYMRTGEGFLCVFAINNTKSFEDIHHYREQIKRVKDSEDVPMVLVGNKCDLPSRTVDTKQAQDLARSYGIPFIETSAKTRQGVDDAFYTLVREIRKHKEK

Sequence of K-Ras G12V (P01116 1-169 isoform P01116-2 G12V): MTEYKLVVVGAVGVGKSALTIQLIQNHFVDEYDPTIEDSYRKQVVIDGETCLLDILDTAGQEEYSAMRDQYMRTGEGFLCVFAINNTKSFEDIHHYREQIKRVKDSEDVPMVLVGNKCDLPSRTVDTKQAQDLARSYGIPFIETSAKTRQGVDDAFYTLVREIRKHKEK
Sequence of K-Ras WT (P01116 1-169 isoform P01116-2): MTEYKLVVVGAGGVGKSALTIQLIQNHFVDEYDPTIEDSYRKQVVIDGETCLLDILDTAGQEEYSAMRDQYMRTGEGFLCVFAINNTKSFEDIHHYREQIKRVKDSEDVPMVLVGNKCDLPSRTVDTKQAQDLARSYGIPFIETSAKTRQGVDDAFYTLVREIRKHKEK

Usually IC50 stands for the midpoint of a concentration-inhibition curve. In the case of `C#Cc1c(F)ccc2cc(OC(=O)N(C)C)cc(-c3ncc4c(N5CCCOCC5)nc(OC[C@@]56CCCN5C[C@H](F)C6)nc4c3F)c12` [Compound 4, 5-ethynyl-6-fluoro-4-(8-fluoro-2-(((2R,7aS)-2-fluorotetrahydro-1H-pyrrolizin-7a(5H)-yl)methoxy)-4-(1,4-oxazepan-4-yl)pyrido[4,3-d]pyrimidin-7-yl)naphthalen-2-yl dimethylcarbamate], the values for the concentration for half-maximal inhibition (IC50) at K-Ras G12V, at K-Ras WT and against K-Ras G12D were 1000 nM, 479 nM and 127 nM, respectively.

`C#Cc1c(F)ccc2cc(OC(=O)OCC)cc(-c3ncc4c(N5CCCOCC5)nc(OC[C@@]56CCCN5C[C@H](F)C6)nc4c3F)c12` [Compound 5, ethyl (5-ethynyl-6-fluoro-4-(8-fluoro-2-(((2R,7aS)-2-fluorotetrahydro-1H-pyrrolizin-7a(5H)-yl)methoxy)-4-(1,4-oxazepan-4-yl)pyrido[4,3-d]pyrimidin-7-yl)naphthalen-2-yl) carbonate]: the figures for the IC50 at K-Ras G12V, on K-Ras WT and against K-Ras G12D were 4.18 nM, 2.71 nM and 2.93 nM, respectively.

On to `C#Cc1c(F)ccc2cc(OC(=O)CCCCCCCCCCCCCCC)cc(-c3ncc4c(N5CCCOCC5)nc(OC[C@@]56CCCN5C[C@H](F)C6)nc4c3F)c12` [Compound 6, 5-ethynyl-6-fluoro-4-(8-fluoro-2-(((2R,7aS)-2-fluorotetrahydro-1H-pyrrolizin-7a(5H)-yl)methoxy)-4-(1,4-oxazepan-4-yl)pyrido[4,3-d]pyrimidin-7-yl)naphthalen-2-yl palmitate trifluoroacetic acid], for which the 50% inhibitory concentration (IC50) on K-Ras G12V worked out at 25 nM; at K-Ras WT, 39.7 nM; on K-Ras G12D, 21.2 nM.

`C#Cc1c(F)ccc2cc(OC(=O)C(C)C)cc(-c3ncc4c(N5CCCOCC5)nc(OC[C@@]56CCCN5C[C@H](F)C6)nc4c3F)c12` [Compound 45, 5-ethynyl-6-fluoro-4-(8-fluoro-2-(((2R,7aS)-2-fluorotetrahydro-1H-pyrrolizin-7a(5H)-yl)methoxy)-4-(1,4-oxazepan-4-yl)pyrido[4,3-d]pyrimidin-7-yl)naphthalen-2-yl isobutyrate trifluoroacetic acid]: the half-maximal inhibitory concentration (IC50) at K-Ras G12V was 4.96 nM; at K-Ras WT it was 2.52 nM; at K-Ras G12D it was 2.37 nM.

As for `C#Cc1c(F)ccc2cc(OC(=O)C(c3ccccc3)N(C)C)cc(-c3ncc4c(N5CCCOCC5)nc(OC[C@@]56CCCN5C[C@H](F)C6)nc4c3F)c12` (stereo partly drawn) [Compound 59, 5-ethynyl-6-fluoro-4-(8-fluoro-2-(((2R,7aS)-2-fluorotetrahydro-1H-pyrrolizin-7a(5H)-yl)methoxy)-4-(1,4-oxazepan-4-yl)pyrido[4,3-d]pyrimidin-7-yl)naphthalen-2-yl 2-(dimethylamino)-2-phenylacetate trifluoroacetic acid], the figures for the IC50 at K-Ras G12V and against K-Ras G12D were 1.34 nM and 0.866 nM, respectively.

For `C#Cc1c(F)ccc2cc(OC(=O)[C@@H](N)C(C)C)cc(-c3ncc4c(N5CCCOCC5)nc(OC[C@@]56CCCN5C[C@H](F)C6)nc4c3F)c12` [Compound 60, 5-ethynyl-6-fluoro-4-(8-fluoro-2-(((2R,7aS)-2-fluorotetrahydro-1H-pyrrolizin-7a(5H)-yl)methoxy)-4-(1,4-oxazepan-4-yl)pyrido[4,3-d]pyrimidin-7-yl)naphthalen-2-yl L-valinate trifluoroacetic acid], the values for the IC50 at K-Ras G12V and against K-Ras G12D were 1.32 nM and 0.664 nM, respectively.

Consider `C#Cc1c(F)ccc2cc(OC(=O)CN(C)C)cc(-c3ncc4c(N5CCCOCC5)nc(OC[C@@]56CCCN5C[C@H](F)C6)nc4c3F)c12` [Compound 61, 5-ethynyl-6-fluoro-4-(8-fluoro-2-(((2R,7aS)-2-fluorotetrahydro-1H-pyrrolizin-7a(5H)-yl)methoxy)-4-(1,4-oxazepan-4-yl)pyrido[4,3-d]pyrimidin-7-yl)naphthalen-2-yl dimethylglycinate trifluoroacetic acid], for which the concentration for half-maximal inhibition (IC50) was found to be 1.28 nM on K-Ras G12V and 0.653 nM against K-Ras G12D.

On to `C#Cc1c(F)ccc2cc(OC(=O)CC[C@@H](C)[C@H]3CC[C@H]4[C@@H]5[C@H](O)C[C@@H]6C[C@H](O)CC[C@]6(C)[C@H]5C[C@H](O)[C@]34C)cc(-c3ncc4c(N5CCCOCC5)nc(OC[C@@]56CCCN5C[C@H](F)C6)nc4c3F)c12` [Compound 62, 5-ethynyl-6-fluoro-4-(8-fluoro-2-(((2R,7aS)-2-fluorotetrahydro-1H-pyrrolizin-7a(5H)-yl)methoxy)-4-(1,4-oxazepan-4-yl)pyrido[4,3-d]pyrimidin-7-yl)naphthalen-2-yl (R)-4-((3R,5S,7R,8R,9S,10S,12S,13R,14S,17R)-3,7,12-trihydroxy-10,13-dimethylhexadecahydro-1H-cyclopenta[a]phenanthren-17-yl)pentanoate trifluoroacetic acid], for which the 50% inhibitory concentration (IC50) is 6.51 nM on K-Ras G12V and 4.13 nM against K-Ras G12D.

On to `C#Cc1c(F)ccc2cc(OC(=O)CCCC[C@@H]3SC[C@@H]4NC(=O)N[C@@H]43)cc(-c3ncc4c(N5CCCOCC5)nc(OC[C@@]56CCCN5C[C@H](F)C6)nc4c3F)c12` [Compound 63, 5-ethynyl-6-fluoro-4-(8-fluoro-2-(((2R,7aS)-2-fluorotetrahydro-1H-pyrrolizin-7a(5H)-yl)methoxy)-4-(1,4-oxazepan-4-yl)pyrido[4,3-d]pyrimidin-7-yl)naphthalen-2-yl 5-((3aS,4S,6aR)-2-oxohexahydro-1H-thieno[3,4-d]imidazol-4-yl)pentanoate trifluoroacetic acid], for which the results for the half-inhibitory concentration (IC50) on K-Ras G12V and against K-Ras G12D were 1.63 nM and 1.22 nM, respectively.

Consider `C#Cc1c(F)ccc2cc(OC(=O)NC)cc(-c3ncc4c(N5CCCOCC5)nc(OC[C@@]56CCCN5C[C@H](F)C6)nc4c3F)c12` [Compound 67, 5-ethynyl-6-fluoro-4-(8-fluoro-2-(((2R,7aS)-2-fluorotetrahydro-1H-pyrrolizin-7a(5H)-yl)methoxy)-4-(1,4-oxazepan-4-yl)pyrido[4,3-d]pyrimidin-7-yl)naphthalen-2-yl methylcarbamate trifluoroacetic acid], for which the half-inhibitory concentration (IC50) at K-Ras G12V was determined as 7.32 nM; at K-Ras G12D it was 5.5 nM.

For `C#Cc1c(F)ccc2cc(OS(=O)(=O)c3ccccc3)cc(-c3ncc4c(N5CCCOCC5)nc(OC[C@@]56CCCN5C[C@H](F)C6)nc4c3F)c12` [Compound 68, 5-ethynyl-6-fluoro-4-(8-fluoro-2-(((2R,7aS)-2-fluorotetrahydro-1H-pyrrolizin-7a(5H)-yl)methoxy)-4-(1,4-oxazepan-4-yl)pyrido[4,3-d]pyrimidin-7-yl)naphthalen-2-yl benzenesulfonate trifluoroacetic acid], the IC50 at K-Ras G12V is 1130 nM; against K-Ras G12D it was 438 nM.

With `C#Cc1c(F)ccc2cc(OCOC)cc(-c3ncc4c(N5CCCOC[C@@H]5C)nc(OC[C@@]56CCCN5C[C@H](F)C6)nc4c3F)c12` [Compound 69, (S)-4-(7-(8-ethynyl-7-fluoro-3-(methoxymethoxy)naphthalen-1-yl)-8-fluoro-2-(((2R,7aS)-2-fluorotetrahydro-1H-pyrrolizin-7a(5H)-yl)methoxy)pyrido[4,3-d]pyrimidin-4-yl)-3-methyl-1,4-oxazepane trifluoroacetic acid], the concentration for half-maximal inhibition (IC50) came to 202 nM on K-Ras G12V and 119 nM against K-Ras G12D.

On to `C#Cc1c(F)ccc2cc(OC(=O)c3c(C)cccc3N)cc(-c3ncc4c(N5CCCOCC5)nc(OC[C@@]56CCCN5C[C@H](F)C6)nc4c3F)c12` [Compound 70, 5-ethynyl-6-fluoro-4-(8-fluoro-2-(((2R,7aS)-2-fluorotetrahydro-1H-pyrrolizin-7a(5H)-yl)methoxy)-4-(1,4-oxazepan-4-yl)pyrido[4,3-d]pyrimidin-7-yl)naphthalen-2-yl 2-amino-6-methylbenzoate trifluoroacetic acid], for which the half-inhibitory concentration (IC50) at K-Ras G12V turned out to be 27.1 nM; on K-Ras G12D, 30 nM.

For the compound `C#Cc1c(F)ccc2cc(OC(=O)N(C)CC(=O)OCC)cc(-c3ncc4c(N5CCCOCC5)nc(OC[C@@]56CCCN5C[C@H](F)C6)nc4c3F)c12` [Compound 71, ethyl N-(((5-ethynyl-6-fluoro-4-(8-fluoro-2-(((2R,7aS)-2-fluorotetrahydro-1H-pyrrolizin-7a(5H)-yl)methoxy)-4-(1,4-oxazepan-4-yl)pyrido[4,3-d]pyrimidin-7-yl)naphthalen-2-yl)oxy)carbonyl)-N-methylglycinate trifluoroacetic acid], the IC50 on K-Ras G12V worked out at 180 nM; at K-Ras G12D, 163 nM.

With `C#Cc1c(F)ccc2cc(OC(=O)C(C)(C)C)cc(-c3ncc4c(N5CCCOCC5)nc(OC[C@@]56CCCN5C[C@H](F)C6)nc4c3F)c12` [Compound 73, 5-ethynyl-6-fluoro-4-(8-fluoro-2-(((2R,7aS)-2-fluorotetrahydro-1H-pyrrolizin-7a(5H)-yl)methoxy)-4-(1,4-oxazepan-4-yl)pyrido[4,3-d]pyrimidin-7-yl)naphthalen-2-yl pivalate trifluoroacetic acid], the IC50 on K-Ras G12V turned out to be 18.7 nM; at K-Ras WT, 31.6 nM; on K-Ras G12D it was 20.7 nM.

In the case of `C#Cc1c(F)ccc2cc(OP(=O)(OCC)OCC)cc(-c3ncc4c(N5CCCOCC5)nc(OC[C@@]56CCCN5C[C@H](F)C6)nc4c3F)c12` [Compound 75, diethyl (5-ethynyl-6-fluoro-4-(8-fluoro-2-(((2R,7aS)-2-fluorotetrahydro-1H-pyrrolizin-7a(5H)-yl)methoxy)-4-(1,4-oxazepan-4-yl)pyrido[4,3-d]pyrimidin-7-yl)naphthalen-2-yl) phosphate trifluoroacetic acid], the results for the IC50 at K-Ras G12V and on K-Ras G12D were 51.4 nM and 38.4 nM, respectively.

Regarding `C#Cc1c(F)ccc2cc(OCc3cn(C)c([N+](=O)[O-])n3)cc(-c3ncc4c(N5CCCOCC5)nc(OC[C@@]56CCCN5C[C@H](F)C6)nc4c3F)c12` [Compound 139, 4-(7-(8-ethynyl-7-fluoro-3-((1-methyl-2-nitro-1H-imidazol-4-yl)methoxy)naphthalen-1-yl)-8-fluoro-2-(((2R,7aS)-2-fluorotetra-hydro-1H-pyrrolizin-7a(5H)-yl)methoxy)pyrido[4,3-d]pyrimidin-4-yl)-1,4-oxazepane], the results for the IC50 at K-Ras G12V and against K-Ras G12D were 92.7 nM and 112 nM, respectively.

Source of the values: US20250019377A1 (JACOBIO PHARMACEUTICALS CO., LTD, priority 2021, published 2025).
